In one assay the test system is S. mutans. In words: Propidium iodide staining of dead S. mutans bacteria on functionalized implant discs. It counts as cell-based, Streptococcus mutans. Conditions: discs functionalized 2 minutes at 37° C., S. mutans challenge 24 hours. As to the method: Streptococcus mutans bacteria (ATCC 700610) were cultured according to an ATCC protocol. Frozen stocks were streak plated on agar and incubated for 24 hours at 37° C. in atmosphere with 5% CO2. A single bacterial colony was used to inoculate 5 mL of Brain Heart Infusion (BHI) broth in a sterile 50 mL conical tube and incubated overnight in the same conditions. Following incubation, 1 mL of culture was added to 9 mL of fresh media and grown to mid-log phase with a final concentration of 10^5 CFU/mL.
Following the functionalization of titanium discs, they were transferred to a sterile well in a 24-well plate and 400 μL of S. mutans bacteria at a concentration of 10^3 CFU/mL was added to the wells containing the discs and incubated for 24 hours at 37° C. in atmosphere with 5% CO2. Following incubation, discs were imaged with a fluorescent microscope to visualize FTIC-labeled bifunctional peptides on the disc surface after bacterial challenge. The dead bacteria were stained with propidium iodide and imaged using a fluorescent microscope. Experiments were repeated in triplicate and images were recorded at 10× magnification.
The antimicrobial functional efficacy of TiBP-AMPA compared to TiBP-GL13K supported the design prediction. […] Representative fluorescent images and quantification of three replicate experiments are depicted in FIGS. 8A and 8B, respectively.

The nature of assay [1]: Peptide film coverage on implant discs after S. mutans challenge. As to conditions: S. mutans challenge for 24 hours, FITC-labeled peptide. An excerpt: (§1) A custom MatLab script was developed to determine the percent surface coverage of fluorescently labeled bifunctional peptides on the implant disc surface. The color fluorescent images were read into MatLab using the imread function. The images were converted to black and white and the total number of black and white pixels quantitated. The number of white pixels corresponding to the fluorescently labeled peptides was divided by the total number of pixels to determine the percent surface coverage.
Streptococcus mutans bacteria (ATCC 700610) were cultured according to an ATCC protocol. Frozen stocks were streak plated on agar and incubated for 24 hours at 37° C. in atmosphere with 5% CO2. […]
Following the functionalization of titanium discs, they were transferred to a sterile well in a 24-well plate and 400 μL of S. mutans bacteria at a concentration of 10^3 CFU/mL was added to the wells containing the discs and incubated for 24 hours at 37° C. in atmosphere with 5% CO2. […] Experiments were repeated in triplicate and images were recorded at 10× magnification.
The binding and antimicrobial domain activities were evaluated by challenging the bifunctional peptide film applied to titanium implant discs with S. mutans bacteria for 24 hours. […]

Assay [2] is described as follows: Peptide binding to titanium implant discs (percent surface coverage by fluorescence imaging). As to conditions: FITC-labeled peptide, up to 6× theoretical footprint concentration, two minutes at 37° C., washed. As to the method: Titanium implant disc functionalization with bifunctional peptides was accomplished by incubating 100 μL of a specified fold concentration of the theoretical “footprint” concentration onto clean, sterile discs for different time periods at 37° C. for 2 minutes. Following incubation, the discs were transferred to a sterile well in a 24-well plate containing 500 μL of DI H2O and washed multiple times to remove unbound peptide. The discs were transferred to a clean glass microscope slide for imaging using a fluorescent microscope. All experiments were repeated a minimum of three times and images were recorded at 10× magnification.
A custom MatLab script was developed to determine the percent surface coverage of fluorescently labeled bifunctional peptides on the implant disc surface. The color fluorescent images were read into MatLab using the imread function. The images were converted to black and white and the total number of black and white pixels quantitated. […]
The theoretical footprint concentration of each bifunctional peptide with a multiple of the binding concentration up to 6× was determined to result in near 100% surface coverage after incubation with a titanium implant disc for only two minutes at 37° C. […] The fluorescent images were then analyzed using a MATLAB script to determine the percentage of the implant disc covered by the bifunctional peptides. […]

Assay [3] in a line: Serum competition binding assay with BSA on titanium implant discs. Conditions: presence of 0.01% BSA, 2 minutes at 37° C.
Text: as §1
Prior to functionalization of sterile titanium implant discs, a solution of BSA and the bifunctional peptide was made in a sterile centrifuge tube. In a sterile 24 well plate, 100 μL of the BSA/bifunctional peptide solution was pipetted onto a titanium implant disc and incubated at 37° C. for 2 minutes. […]
The bifunctional peptide film could be applied to a new dental implant prior to implantation and subsequently during recall appointments for treatment to previously placed implants. […] Thus, the ability of the peptide film to functionalize the implant surface in the presence of serum proteins was determined by pre-mixing the peptide with varying concentrations of bovine serum albumin (BSA) followed by incubating the mixture on the titanium disc for 2 minutes at 37° C. […]

For the next assay, the system named is oral pathogens. As to conditions: against oral pathogens; cited from earlier work.

The values below come from patent publication US12533444B2, “Mitigation of peri-implantitis by design and stability of bifunctional peptides with antimicrobial properties” (priority 2019, dated 2026).

In the case of “RPRENRGRERGLGSGGGGKIIKLKASLKLL [TiBP-GL13K, comparative bifunctional peptide: TiBP, GSGGG spacer, GL13K antimicrobial domain]”, the “dead bacteria coverage (PI staining)” value with S. mutans was determined as 10%. Further, the “surface coverage after bacterial challenge” value in assay [1] worked out at 60%. Moreover, in assay [2], the “surface coverage (initial binding)” value worked out at 96%. The “surface coverage in competition with BSA” value in assay [3] was determined as 73%.
The corresponding values for “RPRENRGRERGLGSGGGKWKLWKKIEKWGQGIGAVLKWLTTW [TiBP-AMPA]” are 46%, 84%, 99% and 80%.
Turning to “GKIIKLKASLKLL [GL13K, cationic amphipathic antimicrobial peptide domain]”, in the assay on oral pathogens, the MIC result was “low”.
On to “KWKLWKKIEKWGQGIGAVLKWLTTW [AMPA, cationic antimicrobial peptide domain]”, for which the MIC result in the assay with oral pathogens was “low”.
